pEC50: −log10 of the molar value. Numbered stars: 1 amine (or outer) side, 2 acyl side, 3 side chain; on linkers, the order of the positions; unused ones are H or OH. Bridge positions count the residues as written; N and C are the ends. Square brackets hold non-standard residues; d marks the D form. Peptide text beside a SMILES is read from it. * marks the point of attachment. Hydrocinnamoyl(4-Me) = Cc1ccc(CCC(=O)*)cc1; NH(CH2)8CO = O=C(CCCCCCCCN[*:1])[*:2]; Glutaryl = O=C(CCCC(=O)[*:2])[*:1]; 2Naphthoyl = O=C(c1ccc2ccccc2c1)*; Suc = O=C(CCC(=O)[*:2])[*:1]; hCys = N[C@@H](CCS)C(=O)O; Isobutyryl = CC(C)C(=O)*; X5 = O=C(/C=C/c1ccccc1)*; Dab = NCC[C@H](N)C(=O)O; Dap = NC[C@H](N)C(=O)O; Aoc = NCCCCCCCC(=O)O; Piv = CC(C)(C)C(=O)*; Butyryl = CCCC(=O)*; Ava = NCCCCC(=O)O; GABA = NCCCC(=O)O; βAla = NCCC(=O)O

The subject of this assay is MCP-1. The experiment in a line: In vitro chemotaxis (trans-well migration) v MCP-1. Format: cell-based, human. The method in brief:
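Trans-well migration toward IL-8 or MCP-1 placed below, with agent added to THP-1 cells (10^4-10^6) in the top well and incubation at 37° C (e.g. 4 hours). MTT absorbance at 595 nm, interpolated on a cell standard curve, gives migrated cell numbers; TGFβ-type negative control and cytotoxicity check included.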
Turning to `CC[C@H](C)[C@@H]1NC(=O)[C@H](Cc2c[nH]c3ccccc23)NC(=O)[C@H](CCCCN)NC(=O)CCCNC(=O)C[C@@H](C(N)=O)NC(=O)[C@H](CCC(N)=O)NC1=O` [Example 60, c(Gaba-Lys-Trp-Ile-Gln-Asp)-NH2] ([GABA]KWIQD-NH2; lactam N-6), the pEC50 was 7.52.
`CC[C@H](C)[C@@H]1NC(=O)[C@H](Cc2c[nH]c3ccccc23)NC(=O)[C@H](CCCCN)NC(=O)CCCCCCCNC(=O)C[C@@H](C(N)=O)NC(=O)[C@H](CCC(N)=O)NC1=O` [Example 95, c(Aoc-Lys-Trp-Ile-Gln-Asp)-NH2] ([Aoc]KWIQD-NH2; lactam N-6) showed a pEC50 of 7.70.
`CC[C@@H](C)[C@H]1NC(=O)[C@@H](CCC(N)=O)NC(=O)[C@H](NC(=O)C(C)C)CSSC[C@H](C(N)=O)NC(=O)[C@@H](CCCCN)NC(=O)[C@@H](Cc2c[nH]c3ccccc23)NC1=O` [Example 193, Isobutyryl-c(D-Cys-D-Gln-D-Ile-D-Trp-D-Lys-D-Cys)-NH2] (Isobutyryl-[dC][dQ][dI][dW][dK][dC]-NH2; disulfide 1-6) showed a pEC50 of 7.60.
The same measure for `CC[C@H](C)[C@@H]1NC(=O)[C@H](Cc2c[nH]c3ccccc23)NC(=O)[C@H](CCCCN)NC(=O)[C@@H](NC(=O)C(C)C)CCC(=O)NCC[C@@H](C(N)=O)NC(=O)[C@H](CCC(N)=O)NC1=O` [Example 101, Isobutyryl-c(Glu-Lys-Trp-Ile-Gln-Dab)-NH2] (Isobutyryl-EKWIQ[Dab]-NH2; lactam 1-6): 8.40.
The same measure for `CC[C@H](C)[C@@H]1NC(=O)[C@@H](N)CSSC[C@@H](C(N)=O)NC(=O)[C@H](CCC(N)=O)NC1=O` [Example 86, c(Cys-Ile-Gln-Cys)-NH2] (H-CIQC-NH2; disulfide 1-4): 8.12; for `CC[C@H](C)[C@@H]1NC(=O)[C@H](Cc2c[nH]c3ccccc23)NC(=O)[C@H](CCCCN)NC(=O)CCNC(=O)CC[C@@H](C(N)=O)NC(=O)[C@H](CCC(N)=O)NC1=O` [Example 89, c((βAla-Lys-Trp-Ile-Gln-Glu)-NH2] ([βAla]KWIQE-NH2; lactam N-6): 7.70.
As for `CC[C@@H](C)[C@H]1NC(=O)[C@@H](CCC(N)=O)NC(=O)CCCCNC(=O)C[C@H](C(N)=O)NC(=O)[C@@H](CCCCN)NC(=O)[C@@H](Cc2c[nH]c3ccccc23)NC1=O` [Example 197, c(Apn-D-Gln-D-Ile-D-Trp-D-Lys-D-Asp)-NH2] ([Ava][dQ][dI][dW][dK][dD]-NH2; lactam N-6), the pEC50 was 7.70.
Molecule `CC[C@H](C)[C@@H]1NC(=O)[C@H](Cc2c[nH]c3ccccc23)NC(=O)[C@H](CCCCN)NC(=O)[C@@H](NC(=O)C(C)C)CCC(=O)NC[C@@H](C(N)=O)NC(=O)[C@H](CCC(N)=O)NC1=O` [Example 100, Isobutyryl-c(Glu-Lys-Trp-Ile-Gln-Dap)-NH2] (Isobutyryl-EKWIQ[Dap]-NH2; lactam 1-6) showed a pEC50 of 8.00.
For the molecule `CC[C@H](C)[C@@H]1NC(=O)[C@H](Cc2c[nH]c3ccccc23)NC(=O)[C@H](CCCCN)NC(=O)[C@@H](NC(=O)/C=C/c2ccccc2)CSSC[C@@H](C(N)=O)NC(=O)[C@H](CCC(N)=O)NC1=O` [Example 72, trans-Ciimamoyl-c(Cys-Lys-Trp-Ile-Gln-Cys)-NH2] (X5-CKWIQC-NH2; disulfide 1-6), the pEC50 was 8.10.
For `CC[C@H](C)[C@@H]1NC(=O)[C@H](Cc2c[nH]c3ccccc23)NC(=O)[C@H](CCCCN)NC(=O)[C@@H](NC(C)=O)CC(=O)NCC[C@@H](C(N)=O)NC(=O)[C@H](CCC(N)=O)NC1=O` [Example 111, Ac-c(Asp-Lys-Trp-Ile-Gln-Dab)-NH2] (Ac-DKWIQ[Dab]-NH2; lactam 1-6), the pEC50 was 8.40.
Consider `CCCC(=O)N[C@@H]1CSSC[C@H](C(N)=O)NC(=O)[C@@H](CCCCN)NC(=O)[C@@H](Cc2c[nH]c3ccccc23)NC(=O)[C@@H](C(C)C)NC(=O)[C@@H](CCC(N)=O)NC1=O` [Example 200, Butanyl-c(D-Cys-D-Gln-D-Val-D-Trp-D-Lys-D-Cys)-NH2] (Butyryl-[dC][dQ][dV][dW][dK][dC]-NH2; disulfide 1-6), for which the pEC50 is 7.52.
The value for `CC[C@H](C)[C@@H]1NC(=O)[C@H](Cc2c[nH]c3ccccc23)NC(=O)[C@H](CCCCN)NC(=O)[C@@H](NC(=O)c2ccc3ccccc3c2)CSSC[C@@H](C(N)=O)NC(=O)[C@H](CCC(N)=O)NC1=O` [Example 69, 2-Naphthoyl-c(Cys-Lys-Trp-Ile-Gln-Cys)-NH2] (2Naphthoyl-CKWIQC-NH2; disulfide 1-6) was 7.82; that for `CC[C@H](C)[C@@H]1NC(=O)[C@H](Cc2c[nH]c3ccccc23)NC(=O)[C@H](CCCCN)NC(=O)CCCCCCCCNC(=O)CC[C@@H](C(N)=O)NC(=O)[C@H](CCC(N)=O)NC1=O` [Example 98, c(Anc-Lys-Trp-Ile-Gln-Glu)-NH2] ([NH(CH2)8CO]KWIQE-NH2; lactam N-6) was 7.82.
For the molecule `CC[C@H](C)[C@@H]1NC(=O)[C@H](Cc2c[nH]c3ccccc23)NC(=O)[C@H](CCCCN)NC(=O)[C@@H](NC(=O)C(C)C)CCNC(=O)C[C@@H](C(N)=O)NC(=O)[C@H](CCC(N)=O)NC1=O` [Example 105, Isobutyryl-c(Dab-Lys-Trp-Ile-Gln-Asp)-NH2] (Isobutyryl-[Dab]KWIQD-NH2; lactam 1-6), the pEC50 is 7.82.
The value for `CC(C)(C)OC(=O)N1Cc2ccccc2C[C@H]1C(=O)NCCC(=O)NC1CCC(=O)NC1=O` (stereo partly drawn) [Example 174, BOC-Tic-βAla-α-aminoglutaramide] was 6.70.
For the molecule `CC[C@H](C)[C@@H]1NC(=O)[C@H](Cc2c[nH]c3ccccc23)NC(=O)[C@H](CCCCN)NC(=O)[C@@H](NC(C)=O)CCNC(=O)C[C@@H](C(N)=O)NC(=O)[C@H](CCC(N)=O)NC1=O` [Example 118, Ac-c(Dab-Lys-Trp-Ile-Gln-Asp)-NH2] (Ac-[Dab]KWIQD-NH2; lactam 1-6), the pEC50 was 8.10.
The molecule `CC[C@H](C)[C@@H]1NC(=O)[C@H](Cc2c[nH]c3ccccc23)NC(=O)[C@H](CCCCN)NC(=O)[C@@H](NC(=O)C(C)(C)C)CSSC[C@@H](C(N)=O)NC(=O)[C@H](CCC(N)=O)NC1=O` [Example 66, Trimethylacetyl-c(Cys-Lys-Trp-Ile-Gln-Cys)-NH2] (Piv-CKWIQC-NH2; disulfide 1-6) showed a pEC50 of 8.00. The pEC50 values of the last two molecules are within 0.2 log units of each other.
The molecule `CC[C@H](C)[C@@H]1NC(=O)[C@H](Cc2c[nH]c3ccccc23)NC(=O)[C@H](CCCCN)NC(=O)[C@@H](NC(=O)C(C)C)CSSC[C@@H](C(N)=O)NC(=O)[C@H](CCC(N)=O)NC1=O` [Example 58, Isobutyryl-c(Cys-Lys-Trp-Ile-Gln-Cys)-NH2] (Isobutyryl-CKWIQC-NH2; disulfide 1-6) had a pEC50 of 8.10. The pEC50 values of the last two molecules are within 0.2 log units of each other.
Consider `CC[C@H](C)[C@@H]1NC(=O)[C@H](Cc2c[nH]c3ccccc23)NC(=O)[C@H](CCCCN)NC(=O)CCCC(=O)NC[C@@H](C(N)=O)NC(=O)[C@H](CCC(N)=O)NC1=O` [Example 127, c(Glutaryl-Lys-Trp-Ile-Gln-Dap)-NH2NH2] (KWIQ[Dap]-NH2; linker N-5 via Glutaryl), for which the pEC50 is 8.15.
`CC[C@H](C)[C@@H]1NC(=O)[C@@H](Cc2c[nH]c3ccccc23)NC(=O)[C@H](CCCCN)NC(=O)[C@@H](NC(C)=O)CSSC[C@@H](C(N)=O)NC(=O)[C@H](CCC(N)=O)NC1=O` [Example 77, Ac-c(Cys-Lys-D-Trp-Ile-Gln-Cys)-NH2] (Ac-CK[dW]IQC-NH2; disulfide 1-6): the pEC50 was 7.70.
`CC[C@H](C)[C@@H]1NC(=O)[C@H](Cc2c[nH]c3ccccc23)NC(=O)[C@H](CCCCN)NC(=O)[C@@H](NC(C)=O)CNC(=O)C[C@@H](C(N)=O)NC(=O)[C@H](CCC(N)=O)NC1=O` [Example 117, Ac-c(Dap-Lys-Trp-Ile-Gln-Asp)-NH2] (Ac-[Dap]KWIQD-NH2; lactam 1-6) showed a pEC50 of 8.30.
Consider `CC[C@H](C)[C@@H]1NC(=O)[C@H](Cc2c[nH]c3ccccc23)NC(=O)[C@H](CCCCN)NC(=O)[C@@H](NC(=O)CCc2ccc(C)cc2)CSSC[C@@H](C(N)=O)NC(=O)[C@H](CCC(N)=O)NC1=O` [Example 80, (Des-amino-4-methyl)Phe-c(Cys-Lys-Trp-Ile-Gln-Cys)-NH2] ({Hydrocinnamoyl(4-Me)}-CKWIQC-NH2; disulfide 1-6), for which the pEC50 is 8.00.
For the molecule `CC[C@H](C)[C@@H]1NC(=O)[C@H](Cc2c[nH]c3ccccc23)NC(=O)[C@H](CCCCN)NC(=O)CCC(=O)NC[C@@H](C(N)=O)NC(=O)[C@H](CCC(N)=O)NC1=O` [Example 125, c(Succinyl-Lys-Trp-Ile-Gln-Dap)-NH2] (KWIQ[Dap]-NH2; linker N-5 via Suc), the pEC50 is 7.82.
`CC[C@H](C)[C@@H]1NC(=O)[C@H](Cc2c[nH]c3ccccc23)NC(=O)[C@H](CCCCN)NC(=O)CCCC(=O)NCC[C@@H](C(N)=O)NC(=O)[C@H](CCC(N)=O)NC1=O` [Example 128, c(Glutaryl-Lys-Trp-Ile-Gln-Dab)-NH2] (KWIQ[Dab]-NH2; linker N-5 via Glutaryl) had a pEC50 of 8.00.
As for “[aminoPeg10-oxaglutaryl]2-c(D-Cys-D-Gln-D-Ile-D-Trp-D-Lys-D-Gln-D-Lys-D-Pro-D-Asp-D-Leu-D-Cys)-NH2 [Example 186]”, the pEC50 was 7.70. Against the preceding molecule, the pEC50 is 0.30 log units lower.
`CC[C@H](C)[C@@H]1NC(=O)[C@H](Cc2c[nH]c3ccccc23)NC(=O)[C@H](CCCCN)NC(=O)CSCC[C@@H](C(N)=O)NC(=O)[C@H](CCC(N)=O)NC1=O` [Example 4, (Ac=Lys=Trp=Ile=Gln=hCyc)=NH2] ({CH2CO}-KWIQ[hCys]-NH2; thioether N-5) gave a pEC50 of 7.70.
On to `CC[C@@H](C)[C@H]1NC(=O)[C@@H](CCC(N)=O)NC(=O)CCNC(=O)C[C@H](C(N)=O)NC(=O)[C@@H](CC(C)C)NC(=O)[C@@H](CC(=O)O)NC(=O)[C@H]2CCCN2C(=O)[C@@H](CCCCN)NC(=O)[C@@H](CCC(N)=O)NC(=O)[C@@H](CCCCN)NC(=O)[C@@H](Cc2c[nH]c3ccccc23)NC1=O` [Example 199, c(βAla-D-Gln-D-Ile-D-Trp-D-Lys-D-Gln-D-Lys-D-Pro-D-Asp-D-Leu-D-Asp)-NH2] ([βAla][dQ][dI][dW][dK][dQ][dK][dP][dD][dL][dD]-NH2; lactam N-11), for which the pEC50 is 7.70.

The values are drawn from patent US20110038885A1, “CHEMOKINE ANALOGS” (priority 2007, published 2011).
